The target in this test is Bruton's Tyrosine Kinase (BTK), inactivated state (Homo sapiens (Human), UniProt Q06187). The test can be described thus: Bruton's Tyrosine Kinase (BTK) Inhibition TR-FRET (Time Resolved FRET) competition assay. Conditions: Kinase Tracer 178, BTK-Eu, 18-24 h at 14° C. The class given is binding. On the procedure:
Bruton's Tyrosine Kinase (BTK) Inhibition TR-FRET (Time Resolved FRET) Assay
This BTK competition assay measures compound potency (IC50) for the inactivated state of Bruton's Tyrosine Kinase using FRET (Forster/Fluorescence Resonance Energy Transfer) technology. The BTK-Eu complex was incubated on ice one hour prior to use at a starting concentration of 50 nM BTK-Bioease™: 10 nM Eu-streptavidin (Perkin-Elmer Catalog# AD0062). The assay buffer consisted of 20 mM HEPES (pH 7.15), 0.1 mM DTT, 10 mM MgCl2, 0.5 mg/ml BSA with 3% Kinase Stabilizer (Fremont Biosolutions, Catalog # STB-K02). After 1 h, the reaction mixture from above was diluted 10 fold in assay buffer to make 5 nM BTK: 1 nM Eu-Streptavidin complex (donor fluorophore). 18 μl of a mixture of 0.11 nM BTK-Eu and 0.11 nM Kinase Tracer 178 (Invitrogen, Catalog # PV5593,) with BTK-Eu alone as no negative control, was then dispensed into 384-well flat bottom plates (Greiner, 784076). Compounds to be tested in assay were prepared as 10× concentrations and serial dilution in half-log increments was performed in DMSO so as to generate 10 point curves. To initiate the FRET reaction, compounds prepared as 10× stock in DMSO was added to the plates and the plates were incubated 18-24 h at 14° C.
After the incubation the plates were read on a BMG Pherastar Fluorescent plate reader (or equivalent) and used to measure the emission energy from the europium donor fluorophore (620 nm emission) and the FRET (665 nm emission). The negative control well values were averaged to obtain the mean minimum. The positive “no inhibitor” control wells were averaged to obtain the mean maximum. Percent of maximal FRET was calculated using following equation: % max FRET=100×[(FSRcmpd−FSRmean min)/(FSRmean max−FSRmean min)] where FSR=FRET Signal ratio. % Max FRET curves were plotted in Activity Base (Excel) and the IC50(%), hill slope, z′ and % CV were determined. The mean IC50 and standard deviation will be derived from duplicate curves (singlet inhibition curves from two independent dilutions) using Microsoft Excel.
A general note: In TR-FRET formats the signal depends on donor and acceptor labels being close together.
Bruton's Tyrosine Kinase (BTK), inactivated state, sequence (Q06187 whole entry): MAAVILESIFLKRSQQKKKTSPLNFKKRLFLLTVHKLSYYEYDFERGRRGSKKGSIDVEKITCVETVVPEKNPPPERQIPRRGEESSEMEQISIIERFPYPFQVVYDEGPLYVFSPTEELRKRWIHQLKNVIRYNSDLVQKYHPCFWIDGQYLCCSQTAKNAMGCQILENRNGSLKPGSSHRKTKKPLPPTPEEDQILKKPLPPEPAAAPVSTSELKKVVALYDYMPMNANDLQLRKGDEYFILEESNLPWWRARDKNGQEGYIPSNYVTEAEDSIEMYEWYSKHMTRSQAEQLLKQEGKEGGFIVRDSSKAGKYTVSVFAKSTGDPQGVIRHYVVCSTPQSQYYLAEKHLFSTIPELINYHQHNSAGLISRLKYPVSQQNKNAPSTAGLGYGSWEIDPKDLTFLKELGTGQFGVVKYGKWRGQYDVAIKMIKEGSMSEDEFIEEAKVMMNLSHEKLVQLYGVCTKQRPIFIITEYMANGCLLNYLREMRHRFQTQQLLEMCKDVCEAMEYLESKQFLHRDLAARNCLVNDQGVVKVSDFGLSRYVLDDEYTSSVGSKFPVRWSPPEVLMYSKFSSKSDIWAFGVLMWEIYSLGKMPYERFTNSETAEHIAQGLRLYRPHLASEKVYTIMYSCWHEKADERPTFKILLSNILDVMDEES
Usually IC50 stands for the concentration that gives 50% inhibition. Higher therefore signals a need for much substance. On to `NC(=O)c1nc(N2CCC[C@@H](NC(=O)N3Cc4ccc(Cl)cc4C3)C2)sc1Nc1ccccn1` [Compound 2, 5-Chloro-1,3-dihydro-isoindole-2-carboxylic acid {(R)-1-[4-carbamoyl-5-(pyridin-2-ylamino)-thiazol-2-yl]-piperidin-3-yl}-amide], for which the IC50 is 7.74 µM. This counts as single-digit micromolar.

Take `CC(C)(C)c1ccc(C(=O)N[C@@H]2CCCN(c3nc(C(N)=O)c(Nc4ccccn4)s3)C2)cn1` [Compound 4, 6-tert-Butyl-N-{(R)-1-[4-carbamoyl-5-(pyridin-2-ylamino)-thiazol-2-yl]-piperidin-3-yl}-nicotinamide]: the IC50 was 1.73 µM. This IC50 is about 4.5-fold lower than that of the compound before.

Compound `Cc1cccc(CC(=O)N[C@@H]2CCCN(c3nc(C(N)=O)c(Nc4ccccn4)s3)C2)c1` [Compound 6, 5-(Pyridin-2-ylamino)-2-[(R)-3-(2-m-tolyl-acetylamino)-piperidin-1-yl]-thiazole-4-carboxylic acid amide] registered an IC50 of 7.51 µM.

The compound `CS(=O)(=O)N[C@@H]1CCCN(c2nc(C(N)=O)c(Nc3ccccn3)s2)C1` [Compound 8, 2-((R)-3-Methanesulfonylamino-piperidin-1-yl)-5-(pyridin-2-ylamino)-thiazole-4-carboxylic acid amide] returned an IC50 of 5.07 µM. This IC50 and that of the compound before are within 1.5-fold of each other.

Consider `CC(C)(C)OC(=O)N[C@@H]1CCCN(c2nc(C(N)=O)c(Nc3ccccn3)s2)C1` [Compound 3, {(R)-1-[4-Carbamoyl-5-(pyridin-2-ylamino)-thiazol-2-yl]-piperidin-3-yl}-carbamic acid tert-butyl ester], for which the IC50 was determined as 1.21 µM.

Compound `NC(=O)c1nc(N2CCC[C@@H](NC(=O)Cc3ccccc3)C2)sc1Nc1ccccn1` [Compound 5, 2-((R)-3-Phenylacetylamino-piperidin-1-yl)-5-(pyridin-2-ylamino)-thiazole-4-carboxylic acid amide] displayed an IC50 of 6.24 µM.

In turn, `CC(C)S(=O)(=O)N[C@@H]1CCCN(c2nc(C(N)=O)c(Nc3ccccn3)s2)C1` [Compound 10, 2-[(R)-3-(Propane-2-sulfonylamino)-piperidin-1-yl]-5-(pyridin-2-ylamino)-thiazole-4-carboxylic acid amide] had an IC50 of 5.8 µM. This IC50 and that of the compound before are within 1.5-fold of each other.

`CC(=O)N[C@@H]1CCCN(c2nc(C(N)=O)c(Nc3ccccn3)s2)C1` [Compound 12, 2-((R)-3-Acetylamino-piperidin-1-yl)-5-(pyridin-2-ylamino)-thiazole-4-carboxylic acid amide] came in with an IC50 of 6.03 µM.

Regarding `CC(C)(C)c1ccc(C(=O)N[C@@H]2CCCN(c3nc(C(N)=O)c(Nc4ccccn4)s3)C2)cc1` [Compound 7, 2-[(R)-3-(4-tert-Butyl-benzoylamino)-piperidin-1-yl]-5-(pyridin-2-ylamino)-thiazole-4-carboxylic acid amide], the IC50 is 0.47 µM.

For the compound `NC(=O)c1nc(N2CCC[C@@H](NS(=O)(=O)c3ccccc3)C2)sc1Nc1ccccn1` [Compound 9, 2-((R)-3-Benzenesulfonylamino-piperidin-1-yl)-5-(pyridin-2-ylamino)-thiazole-4-carboxylic acid amide], the IC50 is 1.61 µM.

(Values after patent US9359345B2, “Thiazole derivatives as inhibitors of Bruton's tyrosine kinase” (Hoffmann-La Roche Inc., priority 2012, dated 2016).)
